Patent US12285407B2, “Bis-indolylmethane derivatives and uses thereof” (The University of The West Indies, priority 2018, dated 2025)

Columns and labels:
[1] = test system: Staphylococcus aureus ATCC 12600; experiment: Broth microdilution MIC of SP-BIMs; format: cell-based; conditions: ATCC12600, SP-BIM alone, read-out: MIC Staphylococcus aureus ATCC 12600
[2] = test system: Pseudomonas aeruginosa ATCC 27853; experiment: Broth microdilution MIC of SP-BIMs; format: cell-based; conditions: ATCC27853, SP-BIM alone, read-out: MIC Pseudomonas aeruginosa ATCC 27853
[3] = test system: Salmonella typhimurium ATCC 14028; experiment: Broth microdilution MIC of SP-BIMs; format: cell-based; conditions: Salmonella enterica, read-out: MIC Salmonella tvpkimurium ATCC 14028
How it was run: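 S. typhimurium at ~10^6 CFU mL^−1 in cation-adjusted Mueller Hinton broth was exposed to twofold compound dilutions from 250 to 0.02 μg mL^−1 at 35° C. for 18 hours. Resazurin was then added, with 1 hour of shaking. MIC was the lowest concentration showing no blue-to-pink colour change.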

[4] = In vivo acute toxicity (OECD guidelines); conditions: one subcutaneous injection, 2000 mg/kg and 300 mg/kg; 14 days
[5] = test system: Enterococcus faecium ATCC 19434; experiment: Broth microdilution MIC of SP-BIMs; format: cell-based; conditions: ATCC19434, SP-BIM alone, read-out: MIC Enterococcus faecium ATCC 19434
MRSA HS 10132 = experiment: Systemic non-lethal MRSA infection in mice (organ MRSA load); format: in vivo
[6] = test system: Bacillus cereus ATCC 14579; experiment: Broth microdilution MIC of SP-BIMs; format: cell-based; conditions: ATCC14579, SP-BIM alone, read-out: MIC Bacillus cereus ATCC 14579
[7] = test system: clinical antibiotic resistant isolates of MRSA; experiment: Checkerboard resistance breaking by SP-BIM 13; format: cell-based, Staphylococcus aureus; conditions: clinical MRSA strains; in most cases

With `Oc1cc(C(c2c[nH]c3ccccc23)c2c[nH]c3ccccc23)cc(O)c1O` [SP-BIM 13, 5-(di(1H-indol-3-yl)methyl)benzene-1,2,3-triol] the MIC [1] was over 250 µg/mL, the MIC [2] was 250 µg/mL and the MIC [3] was 250 µg/mL. The mice deaths [4] was “no mice deaths were recorded”, the “mice weight and appetite” value [4] was “did not significantly vary from the untreated mice” and the MIC [5] was 125 µg/mL. The “MRSA load in the spleen” value (MRSA HS 10132; SP-BIM 13 only, both levels) was “did not significantly reduce”, the “MRSA counts in liver” value (MRSA HS 10132; ampicillin ([…] mg kg^−1)+5 mg kg^−1 SP-BIM 13) was 7900 CFU mL^−1 and the “MRSA counts in liver” value (MRSA HS 10132; ampicillin ([…] mg kg^−1)+10 mg kg^−1 SP-BIM 13) was 900 CFU mL^−1. For the same compound, the “MRSA counts in liver” value (MRSA HS 10132; ampicillin ([…] mg kg^−1)+25 mg kg^−1 SP-BIM 13) was 63 CFU mL^−1, the “MRSA load in the spleen” value (MRSA HS 10132; ampicillin and SP-BIM 13 at 10 and 25 mg kg^−1, vs no treatment, ampicillin only, ampicillin+5 mg kg^−1) was “significantly lower” and the MIC [6] was 125 µg/mL. For the same compound, the “reduction of ampicillin MICs by SP-BIM 13” value [7] was 100 fold.
